One block for each molecule: values may come before it.
Tests used:
[1] = test system: advanced clear-cell renal-cell carcinoma; details: cited from earlier work; for objective response rate: patients after one or two antiangiogenic regimens, nivolumab 3 mg/kg iv every two weeks or everolimus 10 mg orally daily, P<0.001
[2] = subcutaneous injection; cited from earlier work
[3] = test system: melanoma, renal cell carcinoma, and ovarian cancer; details: including decreased metastasis and increased overall survival; cited from earlier work
in vivo = assay: in vivo
Procedure: In certain embodiments, the dosage composition may be provided twice a day in divided dosage, approximately 12 hours apart. In other embodiments, the dosage composition may be provided once daily. […] Dosage for oral administration may be from about 100 mg to about 1200 mg once or twice per day.

[4] = Solubility of X4P-001 as a function of pH; assay type: physicochemical
[5] = oral administration, healthy volunteers and HIV patients; cited from earlier work
[6] = nivolumab compared to everolimus

Molecule: CO[C@H]1C[C@@H]2CC[C@@H](C)[C@@](O)(O2)C(=O)C(=O)N2CCCC[C@H]2C(=O)O[C@H]([C@H](C)C[C@@H]2CC[C@@H](OCCO)[C@H](OC)C2)CC(=O)[C@H](C)/C=C(\C)[C@@H](O)[C@@H](OC)C(=O)[C@H](C)C[C@H](C)/C=C/C=C/C=C/1C [everolimus]
objective response rate [1]: 5%

Molecule: c1cc(CN2CCCNCCNCCCNCC2)ccc1CN1CCCNCCNCCCNCC1 [Plerixafor, reference compound]
half life [2]: very short | anti-tumor activity [3]: significant anti-tumor activity

Molecule: nivolumab: human IgG4 anti-PD-1 monoclonal antibody
incidence of Grade 3 or 4 treatment-related adverse events [1, 6]: lower incidence | median overall survival [1, 6]: longer | objective response rate [1]: 25%

terminal half-life (in vivo): approximately 14.5 hrs | half-life (in vivo; terminal half-life): 12 to 24 h | solubility ([4]; aqueous buffer, pH range 3.0 to 8.0 (freely soluble)): > 100 mg/mL | Solubility in water ([4]; water): only slightly soluble
Molecule: NCCCCN(Cc1nc2ccccc2[nH]1)[C@H]1CCCc2cccnc21 [X4P-001]
anti-tumor activity [3]: significant anti-tumor activity | pharmacodynamic activity: circulating white blood cells (WBCs) [5]: dose- and concentration-related changes | volume of distribution (VL) [5]: high
